Measurements: the supplement of paper PMC8882468

Legend:
Test in all cases: CTG-3D luminescence at 96 h relative to day-0 seeding control (ratio to day 0); higher = more growth / less cytotoxicity; PDxO 3D drug screen, 96 h, CTG-3D normalised to day-0 seeding control.
[1] = system: HCI-017.E2 (organoid from an ER-positive breast cancer xenograft)
[2] = system: HCI-012 (organoid from a breast cancer xenograft)
[3] = system: HCI-015 (organoid from a triple-negative breast cancer xenograft)
[4] = system: HCI-016 (organoid from a triple-negative breast cancer xenograft)
[5] = system: HCI-005.E2 (organoid from a breast cancer xenograft with a HER2-positive history)
[6] = system: MDA-MB-231

NC1(C(=O)N[C@@H](CCO)c2ccc(Cl)cc2)CCN(c2nc[nH]c3nccc2-3)CC1 [capivasertib]
CTG-3D luminescence at 96 h
Details	12.5 pM	0.00025 µM	0.005 µM	0.1 µM	1 µM	10 µM	100 µM	625 fM
[1]	1.91	2.1835	2.12	1.61	1.02	0.644	0.2237	2.12
[5]	1.64	1.67	1.86	2.16	1.02	0.59	0.467	1.73
[6]	4.33	4.28	4.42	4.28	4.07	3.88	2.39	4.44

CTG-3D luminescence at 96 h
Details	12.5 pM	0.00025 µM	0.005 µM	0.1 µM	1 µM	10 µM	100 µM	625 fM
[1], days in culture: 85	2.33	2.6	2.77	2.3	1.44	0.794	0.118	2.69
[2], days in culture: 143	2.02	1.95	1.78	2.01	1.55	0.931	0.0899	1.91
[2], days in culture: 162	2.5	2.27	1.88	2.92	1.51	1.15	0.236	3.5
[2], days in culture: 201	2.73	2.11	1.59	1.5	1.61	0.543	0.269	1.74
[3], days in culture: 172	2.34	2.2	2.33	1.49	1.2	0.92	0.424	2.15
[3], days in culture: 191	2.07	1.39	1.53	1.06	1.24	0.533	0.257	1.27
[3], days in culture: 218	1.47	1.49	1.11	1.59	0.974	0.878	0.315	1.71
[4], days in culture: 153	3.06	1.93	2.64	2.32	2.43	1.43	0.426	2.85
[4], days in culture: 172	2.38	1.35	1.88	1.56	1.72	1.44	0.453	1.75
[4], days in culture: 190	1.81	1.24	1.5	0.925	1.13	1.1	0.565	1.47
[4], days in culture: 199	1.58	1.48	1.5	1.6	1.44	0.914	0.407	1.79

O=C(O)C1(C(=O)O)CCC1.[NH2-].[NH2-].[Pt+2] [carboplatin]
CTG-3D luminescence at 96 h
Details	12.5 pM	0.00025 µM	0.005 µM	0.1 µM	1 µM	10 µM	100 µM	625 fM
[1]	1.88	2.076	2.32	2.4	2.25	2.08	1.9	1.97
[5]	1.69	2.11	1.73	1.87	1.51	1.24	0.225	1.47
[6]	4.49	4.27	4.51	4.46	4.4	4.16	3.05	4.47

CTG-3D luminescence at 96 h
Details	12.5 pM	0.00025 µM	0.005 µM	0.1 µM	1 µM	10 µM	100 µM	625 fM
[1], days in culture: 85	2.99	2.47	2.94	2.35	2.71	2.18	2.37	2.62
[2], days in culture: 143	2.05	1.91	1.99	2.46	2.43	1.87	0.161	1.81
[2], days in culture: 162	2.3	1.93	2.03	2.94	2.7	2.14	0.261	2.61
[2], days in culture: 201	2.62	1.81	1.46	1.53	2.08	1.48	0.595	1.38
[3], days in culture: 172	2.56	2.15	2.48	1.49	2.05	0.715	0.354	2.54
[3], days in culture: 191	2.21	1.24	1.47	1.04	1.4	0.766	0.228	1.15
[3], days in culture: 218	1.26	1.7	1.7	1.77	1.54	0.685	0.229	1.75
[4], days in culture: 153	3.27	2.03	2.66	2.2	2.81	0.866	0.0935	2.64
[4], days in culture: 172	2.27	2.25	1.89	1.3	1.71	0.761	0.139	1.78
[4], days in culture: 190	1.49	1.29	1.53	1.17	1.46	0.642	0.12	1.18
[4], days in culture: 199	1.55	1.29	1.34	1.29	1.64	0.782	0.081	1.86
